The source of these data is patent US20160137639A1, “TRIAZOLE-ISOXAZOLE COMPOUND AND MEDICAL USE THEREOF” (JAPAN TOBACCO INC., priority 2012, published 2016).

One test has as its target T1, human RORγ (Homo sapiens, UniProt P51449).
T1 construct: human, NM_005060.3 and from Ser253 to Lys518; expressed in transfected cells; host or cells: CHO cells (transient co-transfection with pG5-Luc reporter)
T1 sequence (P51449 253-518): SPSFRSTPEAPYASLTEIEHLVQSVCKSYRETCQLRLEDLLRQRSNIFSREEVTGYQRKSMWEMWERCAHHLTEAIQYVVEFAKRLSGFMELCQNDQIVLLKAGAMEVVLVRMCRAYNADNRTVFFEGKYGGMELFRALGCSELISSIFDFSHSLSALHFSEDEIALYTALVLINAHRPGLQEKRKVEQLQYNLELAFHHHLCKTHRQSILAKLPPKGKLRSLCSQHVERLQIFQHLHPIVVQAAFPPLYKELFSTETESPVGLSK
Briefly: Luciferase reporter gene assay of inhibitory effect against RORγ transcriptional activity (GAL4-hRORγ plasmid in CHO cells). The conditions noted are these: read-out: LUC EC50 (μM) hRORg. The test is classed as cell-based.

A further test has as its target T2, mouse RORγ (Mus musculus, UniProt P51450).
T2 construct: mouse, NM_011281.2 and from Ile251 to Lys516; expressed in transfected cells; host or cells: CHO cells (transient co-transfection with pG5-Luc reporter)
T2 sequence (P51450 251-516): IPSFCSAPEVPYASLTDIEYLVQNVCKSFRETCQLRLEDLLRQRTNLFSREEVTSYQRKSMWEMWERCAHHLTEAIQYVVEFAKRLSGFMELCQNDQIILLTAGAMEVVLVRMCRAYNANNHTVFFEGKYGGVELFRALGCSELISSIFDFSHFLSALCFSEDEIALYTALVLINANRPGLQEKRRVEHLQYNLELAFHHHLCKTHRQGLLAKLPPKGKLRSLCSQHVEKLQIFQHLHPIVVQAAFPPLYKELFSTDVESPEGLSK
Briefly: Luciferase reporter gene assay of inhibitory effect against RORγ transcriptional activity (GAL4-mRORγ plasmid in CHO cells). The test is classed as cell-based. The conditions noted are these: read-out: LUC EC50 (μM) mRORg. Put shortly: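 Readout is intracellular luciferase after 2-day compound exposure (8 concentrations, 0.1% DMSO) in CHO cells expressing GAL4 fused to mouse RORγ LBD residues Ile251–Lys516 plus pG5-Luc reporter. EC50 fitted from %-of-control; points showing resazurin-detected cytotoxicity dropped.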
(In a reporter assay the amount or activity of a reporter protein is the signal.)

`Cc1ccc(NC(=O)CCc2nnc(CCCC(C)C)n2C2CC2)c(C)c1` [Example F-215]: the EC50 at human RORγ and on mouse RORγ was less than 3 µM each time.

In the case of `Cc1cccc(NC(=O)CCc2nnc(CCCC(C)C)n2C2CC2)c1C` [Example F-216], the EC50 at human RORγ and at mouse RORγ was less than 3 µM throughout.

On to `COc1cc(C)ccc1CNC(=O)CCc1nnc(CCCC(C)C)n1C1CC1` [Example F-217], for which the EC50 at human RORγ and on mouse RORγ was less than 3 µM throughout.

On to `Cc1c(Cl)cccc1NC(=O)CCc1nnc(CCOC(C)C)n1C1CC1` [Example F-218], for which the EC50 at human RORγ is more than 3 µM; on mouse RORγ, less than 3 µM.

As for `Cc1c(Cl)cccc1NC(=O)CCc1nnc(CNC(=O)C(C)C)n1C1CC1` [Example F-221], the EC50 at human RORγ and on mouse RORγ was more than 3 µM in each case.

As for `Cc1c(Cl)cccc1NC(=O)CCc1nnc(CCC(C)(C)C(=O)O)n1C1CC1` [Example F-226], the EC50 on human RORγ and on mouse RORγ was more than 3 µM in each case.

For the compound `CC(=O)N1CC[C@H](C(=O)Nc2ccc(C)cc2C)[C@H]1c1nnc(CCC2CCCCC2)n1C1CC1` [Example F-227], the EC50 at human RORγ and at mouse RORγ was less than 3 µM throughout.

With `COc1cc(C)ccc1CNC(=O)[C@H]1CCN(C(C)=O)[C@@H]1c1nnc(CCC2CCCCC2)n1C1CC1` [Example F-228], the EC50 on human RORγ and on mouse RORγ was less than 3 µM in each case.

As to `COc1cc(F)ccc1CNC(=O)CCc1nnc(CCC(C)C)n1C1CC1` [Example F-229], the EC50 on human RORγ and at mouse RORγ was more than 3 µM each time.

For the compound `COC(=O)C(C)(C)CCCc1nnc(CCC(=O)Nc2cccc(Cl)c2C)n1C1CC1` [Example F-230], the concentration giving a half-maximal response (EC50) on human RORγ and at mouse RORγ was less than 3 µM each time.

With `CNC(=O)C(C)(C)CCc1nnc(CCC(=O)Nc2cccc(Cl)c2C)n1C1CC1` [Example F-231], the EC50 at human RORγ and on mouse RORγ was more than 3 µM each time.

Regarding `Cc1c(Cl)cccc1NC(=O)CCc1nnc(CCCC(C)(C)C(=O)O)n1C1CC1` [Example F-232], the EC50 at human RORγ and on mouse RORγ was more than 3 µM in each case.

On to `CC(=O)N(CCc1nnc(CCC(=O)Nc2cccc(Cl)c2C)n1C1CC1)C(C)C` [Example F-233], for which the EC50 on human RORγ and on mouse RORγ was more than 3 µM in each case.

Turning to `Cc1c(Cl)cccc1NC(=O)CCc1nnc(C2CN(C(=O)OC(C)(C)C)C2)n1C1CC1` [Example F-234], the EC50 on human RORγ was more than 3 µM; on mouse RORγ it was less than 3 µM.

On to `CNC(=O)C(C)(C)CCCc1nnc(CCC(=O)Nc2cccc(Cl)c2C)n1C1CC1` [Example F-237], for which the EC50 on human RORγ and on mouse RORγ was more than 3 µM throughout.

Take `Cc1c(Cl)cccc1NC(=O)CCc1nnc(CCCC(C)(C)C(=O)N(C)C)n1C1CC1` [Example F-238]: the EC50 on human RORγ and at mouse RORγ was more than 3 µM throughout.

For the compound `Cc1c(Cl)cccc1NC(=O)CCc1nnc(CCC(C)(C)C(=O)N(C)C)n1C1CC1` [Example F-239], the EC50 at human RORγ and on mouse RORγ was more than 3 µM in each case.

For `CCOC(=O)[C@H]1CC[C@H](CCc2nnc(CCC(=O)Nc3cccc(Cl)c3C)n2C2CC2)CC1` [Example F-240], the EC50 is more than 3 µM at human RORγ and less than 3 µM on mouse RORγ.

`COc1cc(C)ccc1CNC(=O)CCc1nnc(CC[C@H]2CC[C@H](C)CC2)n1C1CC1` [Example F-241]: the EC50 at human RORγ and on mouse RORγ was less than 3 µM each time.

As to `COC1CCC(CCc2nnc(CCC(=O)Nc3cccc(Cl)c3C)n2C2CC2)CC1` (stereo not drawn) [Example F-242], the EC50 on human RORγ is more than 3 µM; at mouse RORγ it was less than 3 µM.

With `Cc1c(Cl)cccc1NC(=O)CCc1nnc(CC[C@H]2CC[C@H](C(=O)O)CC2)n1C1CC1` [Example F-243], the EC50 on human RORγ was less than 3 µM; at mouse RORγ it was more than 3 µM.

For `Cc1c(Cl)cccc1NC(=O)CCc1nnc(CC[C@H]2CC[C@H](C(F)(F)F)CC2)n1C1CC1` [Example F-250], the EC50 at human RORγ and on mouse RORγ was more than 3 µM in each case.

Turning to `COc1cc(C)ccc1CNC(=O)CCc1nnc(CC[C@H]2CC[C@H](C(F)(F)F)CC2)n1C1CC1` [Example F-251], the EC50 on human RORγ and at mouse RORγ was less than 3 µM throughout.

For `Cc1c(Cl)cccc1NC(=O)CCc1nnc(CCC2CCC(F)(F)CC2)n1C1CC1` [Example F-254], the EC50 at human RORγ and on mouse RORγ was less than 3 µM throughout.

Consider `CNC(=O)[C@H]1CC[C@H](CCc2nnc(CCC(=O)Nc3cccc(Cl)c3C)n2C2CC2)CC1` [Example F-255], for which the EC50 on human RORγ and at mouse RORγ was more than 3 µM each time.

For the compound `Cc1ccc(NC(=O)CCc2nnc(CCC3CCC(F)(F)CC3)n2C2CC2)c(C)c1` [Example F-256], the EC50 at human RORγ and at mouse RORγ was less than 3 µM each time.

For `COc1cc(C)ccc1CNC(=O)CCc1nnc(CCC2CCC(F)(F)CC2)n1C1CC1` [Example F-257], the EC50 at human RORγ and at mouse RORγ was less than 3 µM in each case.

Regarding `Cc1c(Cl)cccc1NC(=O)CCc1nnc(CC[C@H]2CC[C@H](C(=O)N(C)C)CC2)n1C1CC1` [Example F-258], the EC50 at human RORγ and on mouse RORγ was more than 3 µM throughout.

As for `Cc1c(Cl)cccc1NC(=O)CCc1nnc(C2CN(C(=O)C(C)C)C2)n1C1CC1` [Example F-259], the EC50 on human RORγ and at mouse RORγ was more than 3 µM each time.

In the case of `Cc1c(Cl)cccc1NC(=O)CCc1nnc(C2CN(CC(C)C)C2)n1C1CC1` [Example F-260], the EC50 on human RORγ and at mouse RORγ was more than 3 µM each time.

`Cc1c(Cl)cccc1NC(=O)CCc1nnc(CCN2CCC(F)(F)CC2)n1C1CC1` [Example F-261]: the results for the EC50 at human RORγ and at mouse RORγ were more than 3 µM and less than 3 µM, respectively.

With `COc1c(CNC(=O)CCc2nnc(CCC(C)C)n2C2CC2)ccc(C)c1C` [Example F-262], the EC50 at human RORγ and on mouse RORγ was more than 3 µM each time.

With `COc1cc(C(F)(F)F)ccc1CNC(=O)CCc1nnc(CCC(C)C)n1C1CC1` [Example F-263], the EC50 on human RORγ and on mouse RORγ was less than 3 µM in each case.

`Cc1c(Cl)cccc1NC(=O)CCc1nnc(CC(=O)O)n1C1CC1` [Example F-264]: the EC50 at human RORγ and on mouse RORγ was more than 3 µM throughout.

In the case of `COc1cc(C)ccc1CNC(=O)[C@H]1CCCN(C)[C@@H]1c1nnc(CCC2CCCCC2)n1C1CC1` [Example F-267], the EC50 on human RORγ and at mouse RORγ was less than 3 µM in each case.

`Cc1ccc(NC(=O)CCc2nnc(CCC3(C)CCCCC3)n2C2CC2)c(C)c1` [Example F-269]: the EC50 on human RORγ and at mouse RORγ was less than 3 µM in each case.

On to `COc1cc(C)ccc1CNC(=O)CCc1nnc(CCC2(C)CCCCC2)n1C1CC1` [Example F-270], for which the EC50 on human RORγ and on mouse RORγ was less than 3 µM throughout.

In the case of `Cc1c(Cl)cccc1NC(=O)CCc1nnc([C@H]2CC[C@H](C(C)C)CC2)n1C1CC1` [Example F-280], the EC50 on human RORγ and on mouse RORγ was less than 3 µM throughout.

On to `CC(=O)N[C@@H](CC(=O)Nc1ccc(C)cc1C)c1nnc(CCCC(C)C)n1C1CC1` [Example F-291], for which the EC50 on human RORγ and on mouse RORγ was less than 3 µM each time.

For the compound `Cc1c(Cl)cccc1NC(=O)CCc1nnc(CCN(C)C(C)(C)C)n1C1CC1` [Example F-294], the EC50 on human RORγ and at mouse RORγ was more than 3 µM in each case.

As for `Cc1ccc(NC(=O)[C@H]2CCCN(C)[C@@H]2c2nnc(CCC3CCCCC3)n2C2CC2)c(C)c1` [Example F-295], the EC50 on human RORγ and at mouse RORγ was less than 3 µM each time.

Turning to `CC(=O)N1CC[C@H](C(=O)Nc2ccc(C)cc2C)[C@H]1c1nnc(CCCC(C)(C)C)n1C1CC1` [Example F-296], the EC50 on human RORγ and on mouse RORγ was less than 3 µM each time.

Consider `COc1cc(C)ccc1CNC(=O)[C@H]1CCN(C(C)=O)[C@@H]1c1nnc(CCCC(C)(C)C)n1C1CC1` [Example F-297], for which the EC50 at human RORγ and on mouse RORγ was less than 3 µM throughout.

In the case of `CC(=O)N1C[C@H](C(=O)Nc2ccc(C)cc2C)[C@@H](c2nnc(C3CC(C(C)C)C3)n2C2CC2)C1` (stereo partly drawn) [Example F-298], the EC50 on human RORγ and on mouse RORγ was less than 3 µM in each case.

Regarding `Cc1ccc(NC(=O)[C@H]2C(=O)N(C)C[C@@H]2c2nnc(CCCC(C)(C)C)n2C2CC2)c(C)c1` [Example F-302], the EC50 on human RORγ and at mouse RORγ was less than 3 µM in each case.

For the compound `Cc1ccc(NC(=O)[C@H]2CN(C)C(=O)[C@@H]2c2nnc(CCCC(C)(C)C)n2C2CC2)c(C)c1` [Example F-303], the EC50 on human RORγ and on mouse RORγ was less than 3 µM each time.

Take `Cc1c(Cl)cccc1NC(=O)CCc1nnc(CCOC(C)(C)C(F)(F)F)n1C1CC1` [Example F-304]: the EC50 at human RORγ and on mouse RORγ was less than 3 µM throughout.

`Cc1ccc(NC(=O)CCc2nnc(CCCC(C)(C)C)n2C2CC2)c(C)c1` [Example F-305]: the EC50 at human RORγ and on mouse RORγ was less than 3 µM throughout.

Usually EC50 stands for the concentration needed to bring the measured effect to its halfway point.
